Laboratory results published in patent publication US10336712B2, “Compound for enhancing the coupling degree of complex TRPV4-KCa2.3 and anti-hypertension applications thereof” (Jiangnan University, priority 2017, dated 2019).

Assays:
[1] = biological target: T1, endothelial cell ion channel complex TRPV4-KCa2.3 (Mus musculus, UniProt P58391+Q9EPK8); assay: FRET AB detection of coupling of TRPV4 and KCa2.3 in mesentery endothelial cells of hypertensive mice; format: cell-based, C57BL/6J mouse; details: 10 μM, 96 h, endothelial cells of 8% high-salt, L-NAME and ANG-2 hypertensive mice; FIG. 4
T1 construct: The mesentery endothelial cells of the mice in the high blood pressure model are primarily isolated; endogenous in cells; host or cells: primary mesenteric endothelial cells of hypertensive C57BL/6J mice (high-salt, L-NAME, ANG-2 models)
Description: (§1) C57BL/6J Male mice, 8 weeks aged, are selected, and freely fed for one week. Then, the mice are classified into four groups, respectively 8% high-salt group, L-NAME group, ANG-2 group and reference group. The basic blood pressures of the four groups of mice are measured first to determine the base line of the blood pressure of the mice. The conditions of the reference group are not changed, and the blood pressure is measured every day. The high-salt group is fed with 8% high-salt feed, and then the blood pressure is measured every day. The L-name group is fed with 5% L-NAME solution, and then the blood pressure is measured every day. The ANG-2 group is injected with 4% chloral hydrate to perform anesthesia; then, the mice are respectively operated by implanting a pump on the back, wherein each pump is injected with 200 ul of 2.88 mg/ml ANG-2 solution; then, the mice are sutured and allowed to recover; after approximately 3 days, the measurement of the blood pressure begins, and then continues for about 4 weeks. […]
The mesentery endothelial cells of the mice in the high blood pressure model are primarily isolated and incubated in a constant-temperature cell incubator. […] Then, the coupling of the two proteins before and after the mutation is detected using the laser scanning confocal microscope in the FRET AB mode.

[2] = tested on: three high blood pressure types of mice models; assay: Blood pressure in three high blood pressure types of mice models; format: in vivo, C57BL/6J mouse; details: 1 mg/kg injected via the caudal veins; 8% high-salt, L-NAME and ANG-2 models; FIG. 5
Description: as §1
Experimental method: three high blood pressure types of mice models are constructed according to the method in Embodiment 4. After modeling succeeds, JNc-440 (1 mg/kg) is injected via the caudal veins, and then the blood pressure of the mice is measured and observed.

[3] = biological target: T2, protein KCa2.3 (structural domain 17C) (Mus musculus, UniProt P58391); assay: Streptavidin magnetic bead pull-down of biotinylated JNc-440 from endothelial cell protein, Western blot detection; format: binding, C57BL/6 J mouse; details: FIG. 3
T2 construct: RIPA Lysis is carried out to obtain cellular protein; endogenous in cells; host or cells: primary mesenteric endothelial cells of C57BL/6J mouse
Description: (§2) The endothelial cells of C57BL/6 J mouse mesentery are primarily isolated, and then incubated in a constant-temperature cell incubator. Biotinylated JNc-440 (10 μM/L) is added or oligopeptide and biotinylated JNc-440 (10 μM/L) are added into the incubator to jointly incubated with the cells for 96 h. RIPA Lysis is carried out to obtain cellular protein. The protein supernatant is added with 10 μL streptavidin magnetic beads, and the mixture is incubated at a temperature of 4° C. for a whole night. Suspension generated after the incubation is absorbed using a magnetic stand to obtain an avidin magnetic bead-biotinylated JNc-440-protein complex. The complex is suspended with 50 μL of 1× Loading buffer, and boiled for 5 min in a boiling bath. Samples are separated through SDS-PAGE. Proteins are transferred onto a PVDF membrane. The PVDF membrane with the proteins are confined in 5% BSA for 4 h at room temperature, then incubated with a primary antibody at a temperature of 4° C. for a whole night, and next incubated with a secondary antibody for 2 h at room temperature. ECL color developing agent is added. A protein imaging system is used to detect and analyze the obtained product.

[4] = biological target: T3, protein TRPV4 (structural domain AR2) (Mus musculus, UniProt Q9EPK8); assay: as above; format: binding, C57BL/6 J mouse; details: FIG. 3
T3 construct: RIPA Lysis is carried out to obtain cellular protein; endogenous in cells; host or cells: primary mesenteric endothelial cells of C57BL/6J mouse
Description: as §2

[5] = 10 μM/L, incubated 96 h with primary mouse mesentery endothelial cells

T3 sequence (Q9EPK8 whole entry, the tested form may be a part): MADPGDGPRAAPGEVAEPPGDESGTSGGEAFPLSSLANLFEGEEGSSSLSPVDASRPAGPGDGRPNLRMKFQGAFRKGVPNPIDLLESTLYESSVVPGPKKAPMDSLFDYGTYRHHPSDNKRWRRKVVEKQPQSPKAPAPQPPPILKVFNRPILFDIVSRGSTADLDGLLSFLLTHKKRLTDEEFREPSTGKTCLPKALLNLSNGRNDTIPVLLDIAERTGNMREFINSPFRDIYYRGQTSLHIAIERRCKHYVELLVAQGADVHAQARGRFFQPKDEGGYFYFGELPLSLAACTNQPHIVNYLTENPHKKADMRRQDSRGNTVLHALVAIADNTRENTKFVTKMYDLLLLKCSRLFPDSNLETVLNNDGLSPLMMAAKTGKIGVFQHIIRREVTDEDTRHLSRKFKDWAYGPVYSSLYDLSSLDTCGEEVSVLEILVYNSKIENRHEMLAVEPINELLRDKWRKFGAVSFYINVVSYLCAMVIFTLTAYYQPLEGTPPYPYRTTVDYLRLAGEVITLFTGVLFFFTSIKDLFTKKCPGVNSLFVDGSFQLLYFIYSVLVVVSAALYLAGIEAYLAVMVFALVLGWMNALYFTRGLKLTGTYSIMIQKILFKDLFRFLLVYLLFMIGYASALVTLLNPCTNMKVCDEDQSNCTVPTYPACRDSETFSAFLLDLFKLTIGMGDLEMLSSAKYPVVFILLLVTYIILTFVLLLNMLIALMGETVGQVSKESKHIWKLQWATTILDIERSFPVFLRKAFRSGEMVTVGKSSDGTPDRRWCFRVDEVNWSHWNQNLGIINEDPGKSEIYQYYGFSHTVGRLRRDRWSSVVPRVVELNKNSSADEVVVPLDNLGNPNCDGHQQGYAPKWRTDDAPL

Row | space coupling degree of the proteins TRPV4 and KCa2.3 (FRET) [1] | capability of binding with the protein KCa2.3 after the oligopeptide 17C is added ([3]; 10 μM/L plus oligopeptide 17C, 96 h, compared with the reference control) | binding with the protein KCa2.3 [3, 5] | capability of binding with the protein TRPV4 after the oligopeptide AR2 is added ([4]; 10 μM/L plus oligopeptide AR2, 96 h) | binding with the protein TRPV4 [4, 5] | Structure (SMILES) | blood pressure of the mice [2]
1 | increased obviously | – | – | – | – | O=C(NCCCNC(=O)C(c1ccccc1)c1ccccc1)c1nc(=O)c2ccccc2[nH]1 [JNc-440] | drops obviously
2 | – | obviously reduced | can be bound | obviously reduced | can be bound | O=C1NC2CSC(CCCCC(=O)OCCCCCNc3nc(C(=O)NCCCNC(=O)C(c4ccccc4)c4ccccc4)nc4ccccc34)C2N1 (stereo not drawn) [biotinylated JNc-440] | –
